From US20240270722A1, “POLO LIKE KINASE 4 INHIBITORS” (ORIC Pharmaceuticals, Inc., priority 2021, published 2024)

Tests used:
[1] = target: T1, human recombinant Aurora A (Homo sapiens, UniProt O14965); assay: Aurora A Kinase Biochemical Assay (ADP-Glo); conditions: selectivity ratio Aurora A vs PLK4
T1 construct: purchased ThermoFisher PR5935A
T1 sequence (O14965 1-403): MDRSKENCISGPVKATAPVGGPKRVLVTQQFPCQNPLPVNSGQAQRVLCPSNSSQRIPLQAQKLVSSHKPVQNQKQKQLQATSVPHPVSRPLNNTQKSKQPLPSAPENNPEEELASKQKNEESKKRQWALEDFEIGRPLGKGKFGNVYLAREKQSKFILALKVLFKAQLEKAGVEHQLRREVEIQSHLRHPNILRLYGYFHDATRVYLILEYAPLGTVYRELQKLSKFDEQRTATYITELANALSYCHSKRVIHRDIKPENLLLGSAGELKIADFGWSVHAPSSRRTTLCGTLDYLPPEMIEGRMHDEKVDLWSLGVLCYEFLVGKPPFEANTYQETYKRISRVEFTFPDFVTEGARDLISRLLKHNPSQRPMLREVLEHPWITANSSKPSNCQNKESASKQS
Description: (§1) Activity of human recombinant Aurora A (ThermoFisher, cat #PR5935A) was measured by quantification of adenosine diphosphate (ADP) using the ADP-Glo Kinase Assay Kit (Promega, cat #V9102). […] 5 μL of 5.0 nM Aurora A in assay buffer (50 mM HEPES, pH 7.5, 0.01% Brij-35, 0.01% BSA, 10 mM MgCl2, 1 mM EGTA, 1 mM DTT) was added to the plates. Test compounds and Aurora A were incubated for 15 minutes at room temperature (RT). […] Reactions were stopped and the remaining ATP depleted by adding 10 uL of ADP-Glo reagent (Promega, cat #V912B) and incubating for 40 minutes at RT. The simultaneous conversion of the remaining ADP to ATP and measurement of the newly synthesized ATP was achieved by addition of 20 μL Kinase Detection reagent (Promega, cat #V914B), incubation for 30 min at RT, and luminescence detection using the EnVision plate reader (PerkinElmer). […] The IC50 values reported in Table 2 were determined using four parameter non-linear regression curve fit.

[2] = target: T2, human recombinant Aurora B (Homo sapiens, UniProt Q96GD4); assay: Aurora B Kinase Biochemical Assay (ADP-Glo); conditions: selectivity ratio Aurora B vs PLK4
T2 construct: purchased ThermoFisher PR9210B
T2 sequence (Q96GD4 whole entry): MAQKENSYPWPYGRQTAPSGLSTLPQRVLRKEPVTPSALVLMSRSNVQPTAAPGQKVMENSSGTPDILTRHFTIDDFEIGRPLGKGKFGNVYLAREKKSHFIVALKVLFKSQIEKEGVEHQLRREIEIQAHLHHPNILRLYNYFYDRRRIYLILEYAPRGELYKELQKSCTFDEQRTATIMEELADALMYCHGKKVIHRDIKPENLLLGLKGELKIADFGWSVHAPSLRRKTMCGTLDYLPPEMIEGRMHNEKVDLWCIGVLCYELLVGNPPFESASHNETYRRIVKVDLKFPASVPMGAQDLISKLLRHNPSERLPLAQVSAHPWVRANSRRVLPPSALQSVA
Description: as §1, with “Aurora B” for “Aurora A”, “cat #PR9210B)” for “cat #PR5935A)”, “of 20” for “of 5.0”

human recombinant PLK4 = target: T3, human recombinant PLK4 (Homo sapiens, UniProt O00444); assay: PLK4 Biochemical Assay (ADP-Glo)
T3 construct: purchased ThermoFisher 4PV6396
T3 sequence (O00444 1-970): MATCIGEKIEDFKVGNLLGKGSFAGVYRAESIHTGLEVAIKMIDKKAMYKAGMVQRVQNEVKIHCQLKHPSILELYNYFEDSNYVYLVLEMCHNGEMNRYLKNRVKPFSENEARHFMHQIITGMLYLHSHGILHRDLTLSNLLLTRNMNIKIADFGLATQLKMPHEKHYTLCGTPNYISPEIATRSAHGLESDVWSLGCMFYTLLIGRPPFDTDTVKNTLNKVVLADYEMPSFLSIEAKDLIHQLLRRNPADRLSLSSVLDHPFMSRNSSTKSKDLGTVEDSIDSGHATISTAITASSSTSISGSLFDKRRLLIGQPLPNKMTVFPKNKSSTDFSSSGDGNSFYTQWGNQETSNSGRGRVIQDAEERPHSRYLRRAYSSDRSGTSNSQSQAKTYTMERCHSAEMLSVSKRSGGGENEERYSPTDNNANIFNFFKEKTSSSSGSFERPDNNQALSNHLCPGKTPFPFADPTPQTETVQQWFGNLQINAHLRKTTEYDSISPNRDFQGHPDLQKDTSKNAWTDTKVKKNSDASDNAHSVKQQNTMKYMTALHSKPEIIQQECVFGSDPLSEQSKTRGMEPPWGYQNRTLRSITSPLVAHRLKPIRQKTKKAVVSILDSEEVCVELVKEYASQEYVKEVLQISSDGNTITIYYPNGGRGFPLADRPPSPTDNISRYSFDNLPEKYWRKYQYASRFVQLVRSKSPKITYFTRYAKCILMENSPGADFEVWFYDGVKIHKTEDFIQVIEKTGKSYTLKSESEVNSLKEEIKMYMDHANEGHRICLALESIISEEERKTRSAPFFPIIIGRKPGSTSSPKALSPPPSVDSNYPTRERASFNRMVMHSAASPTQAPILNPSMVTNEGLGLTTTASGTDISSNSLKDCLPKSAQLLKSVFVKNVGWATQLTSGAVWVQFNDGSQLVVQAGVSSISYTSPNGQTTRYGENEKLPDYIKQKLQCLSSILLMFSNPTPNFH
Description: 5 μL of 1.0 nM PLK4 protein in assay buffer (50 mM HEPES, pH 7.5, 0.01% Brij-35, 0.01% BSA, 10 mM MgCl2, 1 mM EGTA, 1 mM DTT) was added to the plates. Test compounds and PLK4 were incubated for 15 minutes at room temperature (RT). […] The IC50 values reported in Table 2 were determined using four parameter non-linear regression curve fit.

| Compound | [Aurora A IC50 (nM)]/[PLK4 IC50 (nM)] [1] | [Aurora B IC50 (nM)]/[PLK4 IC50 (nM)] [2] | IC50 (human recombinant PLK4) |
| --- | --- | --- | --- |
| COc1ccc2c(c1)[C@]1(C[C@H]1c1ccc3c(Nc4nccc5c4OC[C@@H]5CO)n[nH]c3c1)C(=O)N2 (single isomer, unassigned) [Example 33] | 355.9465 | 8.474 | – |
| COc1ccc2c(c1)[C@]1(C[C@H]1c1ccc3c(Nc4nccc5c4OC[C@H]5CO)n[nH]c3c1)C(=O)N2 (single isomer, unassigned) [Example 34] | 893.3126 | 19.96 | – |
| COc1ccc2c(c1)[C@]1(C[C@H]1c1ccc3c(Nc4nn(C)cc4OC)n[nH]c3c1)C(=O)N2.O=C(O)C(F)(F)F [Example 79, (1R,2S)-5′-methoxy-2-{3-[(4-methoxy-1-methyl-1H-pyrazol-3-yl)amino]-1H-indazol-6-yl}spiro[cyclopropane-1,3′-indol]-2′(1′H)-one] | 210.5378 | 6.986 | – |
| COc1ccc2c(c1)[C@]1(C[C@H]1c1ccc3c(Nc4ncnc(N5CCOCC5)c4OC(F)F)n[nH]c3c1)C(=O)N2 [Example 109, (1R,2S)-2-(3-{[5-(difluoromethoxy)-6-(morpholin-4-yl)pyrimidin-4-yl]amino}-1H-indazol-6-yl)-5′-methoxyspiro[cyclopropane-1,3′-indol]-2′(1′H)-one] | 50000 | – | – |
| COc1cnc(C)nc1Nc1n[nH]c2cc([C@@H]3C[C@@]34C(=O)Nc3ccc(C(F)(F)F)cc34)ccc12 [Example 137, (1R,2S)-2-{3-[(5-methoxy-2-methylpyrimidin-4-yl)amino]-1H-indazol-6-yl}-5′-(trifluoromethyl)spiro[cyclopropane-1,3′-indol]-2′(1′H)-one] | 62 | 72 | – |
| COc1cnc(C)nc1Nc1n[nH]c2cc([C@@H]3C[C@@]34C(=O)Nc3ccc(OC(F)(F)F)cc34)ccc12 [Example 138, (1R,2S)-2-{3-[(5-methoxy-2-methylpyrimidin-4-yl)amino]-1H-indazol-6-yl}-5′-(trifluoromethoxy)spiro[cyclopropane-1,3′-indol]-2′(1′H)-one] | 70 | 36 | – |
| COc1cnc(C)nc1Nc1n[nH]c2cc([C@@H]3C[C@]34C(=O)Nc3ccc(OC(F)(F)F)cc34)ccc12 [Example 139, (1S,2S)-2-{3-[(5-methoxy-2-methylpyrimidin-4-yl)amino]-1H-indazol-6-yl}-5′-(trifluoromethoxy)spiro[cyclopropane-1,3′-indol]-2′(1′H)-one] | 7.4 | 9.6 | – |
| COc1ccc2c(c1)[C@]1(C[C@H]1c1ccc3c(Nc4cc(OC)c(S(N)(=O)=O)cc4OC)n[nH]c3c1)C(=O)N2 [Example 212, 2,5-Dimethoxy-4-({6-[(1R,2S)-5′-methoxy-2′-oxo-1′,2′-dihydrospiro[cyclopropane-1,3′-indol]-2-yl]-1H-indazol-3-yl}amino)benzene-1-sulfonamide] | – | 280 | – |
| COc1ccc2c(c1)[C@]1(C[C@H]1c1ccc3c(Nc4ncc(P(C)(C)=O)cc4OC)n[nH]c3c1)C(=O)N2 [Example 225, (1R,2S)-2-(3-{[5-(dimethylphosphoryl)-3-methoxypyridin-2-yl]amino}-1H-indazol-6-yl)-5′-methoxyspiro[cyclopropane-1,3′-indol]-2′(1′H)-one] | 1884.6028 | 381.4972 | 6.12 nM |
| CCOc1cc(S(=O)(=O)NC)cnc1Nc1n[nH]c2cc([C@@H]3C[C@@]34C(=O)Nc3ccc(OC)cc34)ccc12 [Example 275, 5-ethoxy-6-({6-[(1R,2S)-5′-methoxy-2′-oxo-1′,2′-dihydrospiro[cyclopropane-1,3′-indol]-2-yl]-1H-indazol-3-yl}amino)-N-methylpyridine-3-sulfonamide] | – | 230 | – |
